Source: patent US10968227B2, “Isoquinoline ether compounds as mGluR4 allosteric potentiators, compositions, and methods of treating neurological dysfunction” (Vanderbilt University, priority 2016, dated 2021)

Experiments:
Brain-plasma partition = format: in vivo; conditions: rat; for unbound brain-to-plasma partition coefficient (Kp,uu): unbound brain-plasma ratio, read-out: Brain-Plasma Kp,ω
[1] = Rat intrinsic and hepatic clearance; format: in vitro ADME
mGlu4 = mGlu4 (Homo sapiens, UniProt Q14833); test: mGluR4 potentiation (PAM) fluorescence assay with EC20 agonist; format: cell-based
mGlu4, sequence (Q14833 33-912 limits assumed): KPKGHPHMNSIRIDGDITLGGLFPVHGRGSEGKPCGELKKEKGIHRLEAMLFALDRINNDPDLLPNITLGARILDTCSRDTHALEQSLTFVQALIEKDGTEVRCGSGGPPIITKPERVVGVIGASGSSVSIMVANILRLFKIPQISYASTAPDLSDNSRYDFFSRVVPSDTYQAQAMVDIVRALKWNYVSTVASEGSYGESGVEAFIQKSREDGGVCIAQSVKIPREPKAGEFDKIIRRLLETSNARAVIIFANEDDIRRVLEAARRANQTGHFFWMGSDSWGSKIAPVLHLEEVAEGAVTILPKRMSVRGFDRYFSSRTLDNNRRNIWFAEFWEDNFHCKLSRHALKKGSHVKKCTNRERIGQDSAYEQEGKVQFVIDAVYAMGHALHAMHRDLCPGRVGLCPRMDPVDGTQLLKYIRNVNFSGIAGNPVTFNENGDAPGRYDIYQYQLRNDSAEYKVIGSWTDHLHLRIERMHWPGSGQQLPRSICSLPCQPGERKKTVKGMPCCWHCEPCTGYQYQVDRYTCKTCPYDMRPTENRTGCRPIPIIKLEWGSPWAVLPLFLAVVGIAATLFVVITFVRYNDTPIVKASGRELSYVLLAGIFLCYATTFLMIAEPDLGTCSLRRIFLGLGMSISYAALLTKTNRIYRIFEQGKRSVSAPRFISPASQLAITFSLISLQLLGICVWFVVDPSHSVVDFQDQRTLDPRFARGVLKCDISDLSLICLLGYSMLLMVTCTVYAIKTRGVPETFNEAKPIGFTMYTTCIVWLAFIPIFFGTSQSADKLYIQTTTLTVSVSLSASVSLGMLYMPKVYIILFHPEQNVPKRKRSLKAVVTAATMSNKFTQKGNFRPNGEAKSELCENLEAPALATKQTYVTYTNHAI
Procedure: The disclosed compounds and compositions can be evaluated for their ability to act as a potentiator of metabotropic glutamate receptor activity, in particular mGluR4 activity, by any suitable known methodology known in the art. For example, Chinese Hamster Ovary (CHO) cells transfected with human mGluR4 or HEK cells co-transfected with rat mGuR4 and the G-protein regulated Inwardly Rectifying Potassium channel (GIRK) were plated in clear bottom assay plates for assay in a Hamamatsu FDSS Fluorometric Plate Reader. The cells were loaded with either a Ca2+-sensitive fluorescent dye or the thallium responsive dye and the plates were washed and placed into a suitable kinetic plate reader. For human mGuR4 assays, a fluorescence baseline was established for 3-5 seconds, the disclosed compounds were then added to the cells, and the response in cells was measured. Approximately two and a half minutes later, a concentration of mGuR4 orthosteric agonist (e.g. glutamate or L-AP4) eliciting approximately 20% (EC20) of the maximal agonist response was added to the cells, and the response was measured. Two minutes later, a concentration of mGluR4 agonist (e.g. glutamate or L-AP4) eliciting 80% (EC80) of the maximal agonist response was added to the cells, and the response was measured. […] If the compound acts as a noncompetitive antagonist, an IC50 value is determined by non-linear curve fitting. […]

[2] = Rat plasma fraction unbound; format: in vitro ADME; conditions: read-out: Rat Fu Plasma
[3] = Human intrinsic and hepatic clearance; format: in vitro ADME
[4] = Rat brain fraction unbound; format: in vitro ADME; conditions: read-out: Rat Fu Brain
[5] = Human plasma fraction unbound; format: in vitro ADME; conditions: read-out: Human Fu Plasma
1A2 = 1A2 (Homo sapiens (Human), UniProt P05177); test: CYP 1A2 inhibition; format: in vitro ADME
1A2, sequence (P05177 whole entry): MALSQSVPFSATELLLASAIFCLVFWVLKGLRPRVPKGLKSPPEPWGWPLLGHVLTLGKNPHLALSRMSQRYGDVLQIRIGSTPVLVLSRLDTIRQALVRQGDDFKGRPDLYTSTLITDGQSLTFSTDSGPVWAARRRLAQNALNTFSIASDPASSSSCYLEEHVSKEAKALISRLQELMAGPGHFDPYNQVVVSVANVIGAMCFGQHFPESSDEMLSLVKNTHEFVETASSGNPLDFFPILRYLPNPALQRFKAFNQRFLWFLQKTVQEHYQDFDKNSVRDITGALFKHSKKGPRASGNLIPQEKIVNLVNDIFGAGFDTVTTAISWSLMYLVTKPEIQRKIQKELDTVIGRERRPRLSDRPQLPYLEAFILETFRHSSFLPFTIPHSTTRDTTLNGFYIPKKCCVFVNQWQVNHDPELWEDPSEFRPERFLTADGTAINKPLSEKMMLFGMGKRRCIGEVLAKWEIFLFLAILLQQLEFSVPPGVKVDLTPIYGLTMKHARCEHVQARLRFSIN

3A4 = 3A4 (Homo sapiens (Human), UniProt P08684); test: CYP 3A4 inhibition; format: in vitro ADME
3A4, sequence (P08684 whole entry): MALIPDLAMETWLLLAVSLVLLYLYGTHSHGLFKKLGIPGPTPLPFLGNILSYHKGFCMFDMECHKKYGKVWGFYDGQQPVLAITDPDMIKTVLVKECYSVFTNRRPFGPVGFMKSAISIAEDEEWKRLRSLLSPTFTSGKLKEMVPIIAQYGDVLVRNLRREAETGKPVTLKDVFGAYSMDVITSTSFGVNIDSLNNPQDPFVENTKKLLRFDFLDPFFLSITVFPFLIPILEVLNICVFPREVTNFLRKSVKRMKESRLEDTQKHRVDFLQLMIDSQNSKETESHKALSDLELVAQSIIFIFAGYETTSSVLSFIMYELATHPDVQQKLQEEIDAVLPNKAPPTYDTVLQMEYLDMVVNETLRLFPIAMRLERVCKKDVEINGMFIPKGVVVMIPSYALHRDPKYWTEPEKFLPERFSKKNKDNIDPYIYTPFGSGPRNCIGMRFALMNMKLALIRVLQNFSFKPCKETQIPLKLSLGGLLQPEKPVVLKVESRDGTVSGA

2D6 = 2D6 (Homo sapiens (Human), UniProt P10635); test: CYP 2D6 inhibition; format: in vitro ADME
2D6, sequence (P10635 whole entry): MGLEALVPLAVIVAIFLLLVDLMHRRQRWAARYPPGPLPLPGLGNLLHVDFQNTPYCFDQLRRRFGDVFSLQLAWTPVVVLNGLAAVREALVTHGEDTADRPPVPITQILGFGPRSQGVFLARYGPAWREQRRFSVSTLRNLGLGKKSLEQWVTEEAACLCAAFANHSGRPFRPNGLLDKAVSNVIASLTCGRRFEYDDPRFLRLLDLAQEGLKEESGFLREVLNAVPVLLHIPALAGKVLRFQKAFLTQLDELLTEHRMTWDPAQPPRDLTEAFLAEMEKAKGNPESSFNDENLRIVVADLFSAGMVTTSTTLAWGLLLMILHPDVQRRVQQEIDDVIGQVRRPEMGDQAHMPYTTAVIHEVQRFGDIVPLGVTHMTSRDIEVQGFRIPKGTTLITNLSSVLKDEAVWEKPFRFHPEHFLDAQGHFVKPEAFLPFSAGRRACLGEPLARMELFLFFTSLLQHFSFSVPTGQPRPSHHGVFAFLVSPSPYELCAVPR

2C9 = 2C9 (Homo sapiens (Human), UniProt P11712); test: CYP 2C9 inhibition; format: in vitro ADME
2C9, sequence (P11712 whole entry): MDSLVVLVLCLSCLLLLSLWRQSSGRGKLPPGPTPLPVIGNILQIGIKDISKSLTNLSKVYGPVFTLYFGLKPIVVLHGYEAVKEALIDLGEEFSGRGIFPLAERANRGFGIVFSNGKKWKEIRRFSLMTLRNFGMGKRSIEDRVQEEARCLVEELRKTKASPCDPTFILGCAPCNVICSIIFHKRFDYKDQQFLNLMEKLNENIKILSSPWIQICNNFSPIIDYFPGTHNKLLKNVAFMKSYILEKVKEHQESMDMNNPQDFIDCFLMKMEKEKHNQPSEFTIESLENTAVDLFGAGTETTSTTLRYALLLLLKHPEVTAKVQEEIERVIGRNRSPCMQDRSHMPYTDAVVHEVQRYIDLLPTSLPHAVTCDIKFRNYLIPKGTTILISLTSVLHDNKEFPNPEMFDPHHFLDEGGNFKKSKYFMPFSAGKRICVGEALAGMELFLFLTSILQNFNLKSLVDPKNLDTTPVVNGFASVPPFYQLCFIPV

Row | Compound | Kp (Brain-plasma partition) | unbound brain-to-plasma partition coefficient (Kp,uu) (Brain-plasma partition) | CLint scaled [1] | Rat CLhep [1] | EC50 (mGlu4) | fraction unbound [2] | CLint scaled [3] | Human CLhep [3] | fraction unbound [4] | fraction unbound [5] | IC50 (1A2) | IC50 (3A4) | IC50 (2D6) | IC50 (2C9)
1 | c1cc2cc(Nc3n[nH]c4nccnc34)ccc2c(OCC2CCCCO2)n1 (stereo not drawn) [Compound 57] | 0.89 | 0.24 | 211 mL/min/kg | 52.6 mL/min/kg | 0.0697 µM | 0.015 | 53.8 mL/min/kg | 15.1 mL/min/kg | 0.004 | 0.011 | – | – | – | –
2 | c1cnc2c(Nc3ccc4c(OCC5CCCCO5)nccc4c3)n[nH]c2c1 (stereo not drawn) [Compound 56] | 1.09 | 0.23 | 348 mL/min/kg | 58.3 mL/min/kg | 0.0788 µM | 0.014 | 72.3 mL/min/kg | 16.3 mL/min/kg | 0.003 | 0.007 | 8.43 µM | 22.6 µM | 22.2 µM | 3.56 µM
